The values that follow come from US12018023B2 (NERVIANO MEDICAL SCIENCES S.R.L., priority 2018, dated 2024).

As a reminder, the IC50 is the concentration needed to halve the response being measured.

What all share (format): biochemical
One test has as its target T1, IDH2^R172K (Homo sapiens, UniProt P48735, R172K).
T1 construct: purchased not specified
T1 sequence (P48735 40-452 R172K): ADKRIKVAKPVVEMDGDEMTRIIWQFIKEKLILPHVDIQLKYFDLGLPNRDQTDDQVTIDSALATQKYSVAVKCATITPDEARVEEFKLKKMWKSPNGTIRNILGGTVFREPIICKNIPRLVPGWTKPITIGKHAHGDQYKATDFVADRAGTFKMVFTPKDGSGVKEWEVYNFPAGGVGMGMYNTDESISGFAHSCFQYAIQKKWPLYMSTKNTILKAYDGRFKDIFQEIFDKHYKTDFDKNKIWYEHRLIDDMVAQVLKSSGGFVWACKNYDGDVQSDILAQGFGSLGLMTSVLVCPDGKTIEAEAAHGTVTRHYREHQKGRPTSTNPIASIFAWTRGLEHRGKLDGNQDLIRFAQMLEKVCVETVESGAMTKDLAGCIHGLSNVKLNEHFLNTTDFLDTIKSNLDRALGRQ
The test can be described thus: NADPH depletion assay, IDH2 R172K. The protocol: IDH mutated enzyme activity converting alpha-ketoglutarate to 2-hydroxyglutaric acid is measured using a NADPH depletion assay. In the assay the remaining cofactor is measured at the end of the reaction with the addition of a catalytic excess of diaphorase and resazurin, to generate a fluorescent signal in proportion to the amount of NADPH remaining. IDH1 WT enzyme as well as mutated isoforms IDH1^R132H, IDH1^R132C, and IDH^2R172K enzymes are commercially available proteins (see e.g. Sino Biological, Abcam, Active Motif or Creative BioMart).
IDH1^R132H homodimer enzyme are diluted to 8 nM, in 10 μL of Assay Buffer (150 mM NaCl, 50 mM Tris-HCl pH 7.6, 10 mM MgCl2, 0.001% Triton X-100, 4 mM β-mercaptoethanol); 0.2 uL of test compound, previously serially diluted 1 to 3, >10 experimental points from 1 mM in DMSO, is added and the mixture is incubated for 15 minutes at room temperature. The reaction is started with the addition of 10 μL of Substrate Mix (12 uM NADPH, 3.4 mM alpha-ketoglutarate in Assay Buffer) and the mixture is incubated for 60 minutes at room temperature. The reaction is terminated with the addition of 5 μl of Detection Buffer (100 μg/mL diaphorase, 30 μM resazurin, in IX Assay Buffer), and is incubated for 15 minute before reading on a ViewLux as platereader at Ex544/Em590.
Compounds are assayed for their activity against IDH2^R172K following the same assay as above with the following modifications: IDH2^R172K and alpha-ketoglutarate final concentrations in the Assay Buffer is 16 nM and 0.55 mM, respectively.

For a further test, the target named is T2, IDH1^R132C (Homo sapiens, UniProt O75874, R132C).
T2 construct: purchased not specified
Briefly: NADPH depletion assay, IDH1 R132C. The method in brief:
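Fluorescence readout (Ex544/Em590) of NADPH left after diaphorase/resazurin addition. Alpha-ketoglutarate 0.14 mM final, enzyme 2 nM final; compound preincubation 15 min, then 60 min reaction, both at room temperature, pH 7.6 Tris buffer.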

Test [1] deals with T3, IDH1^R132H homodimer enzyme (Homo sapiens, UniProt O75874, R132H).
T3 construct: purchased not specified
Briefly: NADPH depletion assay, IDH1 R132H. The method in brief:
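IDH1 R132H enzyme (8 nM as diluted) in Tris-HCl pH 7.6 with 10 mM MgCl2, 0.001% Triton X-100 and 4 mM β-mercaptoethanol is preincubated 15 min at RT with compound. Substrate mix (12 uM NADPH, 3.4 mM α-ketoglutarate) is added for 60 min; remaining NAD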

T2 sequence (O75874 whole entry R132C): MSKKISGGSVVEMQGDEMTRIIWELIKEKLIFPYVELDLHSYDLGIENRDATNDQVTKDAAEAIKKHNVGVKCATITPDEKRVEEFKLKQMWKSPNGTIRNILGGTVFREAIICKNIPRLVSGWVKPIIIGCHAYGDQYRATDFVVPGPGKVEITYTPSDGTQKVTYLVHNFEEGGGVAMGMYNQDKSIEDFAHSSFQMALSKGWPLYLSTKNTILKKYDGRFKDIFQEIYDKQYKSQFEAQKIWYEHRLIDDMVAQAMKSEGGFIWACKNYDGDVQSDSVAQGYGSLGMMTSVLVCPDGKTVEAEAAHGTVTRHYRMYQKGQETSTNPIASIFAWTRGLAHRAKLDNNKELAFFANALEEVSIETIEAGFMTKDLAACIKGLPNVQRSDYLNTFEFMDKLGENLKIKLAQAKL
T3 sequence (O75874 whole entry R132H): as the sequence (O75874 whole entry R132C) above, with C132H counted along it

With `C[C@H](Nc1ncc2ccc(=O)n(Cc3cccc(C(F)(F)F)c3)c2n1)c1ccc(Cl)cc1` [cpd 24, 2-{[(1S)-1-(4-chlorophenyl)ethyl]amino}-8-[3-(trifluoromethyl)benzyl]pyrido[2,3-d]pyrimidin-7(8H)-one], the IC50 at IDH2^R172K worked out at 2.96 µM; on IDH1^R132C, 1.72 µM; in test [1], 3.53 µM.
The like results for `C[C@H](Nc1ncc2ccc(=O)n(Cc3ccccc3)c2n1)c1ccc(Cl)cc1` [cpd 16, 8-benzyl-2-{[(1S)-1-(4-chlorophenyl)ethyl]amino}pyrido[2,3-d]pyrimidin-7(8H)-one] were, in that order, 2.7 µM, 0.46 µM and 1 µM.
The like results for `CC(Nc1ncc2ccc(=O)n(Cc3ccccc3)c2n1)c1ccc(CN2CCC(F)(F)CC2)cc1` (stereo not drawn) [cpd 96, 8-benzyl-2-[(1-{4-[(4,4-difluoropiperidin-1-yl)methyl]phenyl}ethyl)amino]pyrido[2,3-d]pyrimidin-7(8H)-one] were, in that order, 5.02 µM, 0.42 µM and 0.801 µM.
Regarding `CC(C)[C@H](C)n1c(=O)ccc2cnc(N[C@@H](C)c3ccc(Br)cc3)nc21` [cpd 163, 2-{[(1S)-1-(4-bromophenyl)ethyl]amino}-8-[(2S)-3-methylbutan-2-yl]pyrido[2,3-d]pyrimidin-7(8H)-one], the IC50 turned out to be 6.6 µM against IDH2^R172K, 0.087 µM against IDH1^R132C and 0.163 µM in test [1].
Taken in the same sequence, the figures for `C=CC(=O)N1CCN(C(=O)c2ccc([C@H](C)Nc3ncc4ccc(=O)n(CC)c4n3)cc2)CC1` [cpd 190, 2-{[(1S)-1-{4-[(4-acryloylpiperazin-1-yl)carbonyl]phenyl}ethyl]amino}-8-ethylpyrido[2,3-d]pyrimidin-7(8H)-one] were 0.679 µM, 3.6 µM and 1.94 µM.
Taken in the same sequence, the figures for `C=CC(=O)N1CCC(NC(=O)c2ccc([C@H](C)Nc3ncc4ccc(=O)n(C(C)C)c4n3)cc2F)CC1` [cpd 192, N-(1-acryloylpiperidin-4-yl)-2-fluoro-4-[(1S)-1-{[7-oxo-8-(propan-2-yl)-7,8-dihydropyrido[2,3-d]pyrimidin-2-yl]amino}ethyl]benzamide] were 0.645 µM, 0.252 µM and 0.227 µM.
Taken in the same sequence, the figures for `C[C@H](Nc1ncc2ccc(=O)n(Cc3ccc(F)cc3)c2n1)c1ccc(Cl)cc1` [cpd 28, 2-{[(1S)-1-(4-chlorophenyl)ethyl]amino}-8-(4-fluorobenzyl)pyrido[2,3-d]pyrimidin-7(8H)-one] were 2.51 µM, 0.59 µM and 1.48 µM.
Turning to `CCn1c(=O)ccc2cnc(N[C@@H](C)C3CCCCC3)nc21` [cpd 12, 2-{[(1S)-1-cyclohexylethyl]amino}-8-ethylpyrido[2,3-d]pyrimidin-7(8H)-one], the IC50 against IDH2^R172K is 5.02 µM; against IDH1^R132C it was 1.78 µM; in test [1], 3.48 µM.
The like results for `CCCn1c(=O)ccc2cnc(N[C@@H](C)c3ccc(CN4CCC(F)(F)CC4)cc3)nc21` [cpd 101, 2-{[(1S)-1-{4-[(4,4-difluoropiperidin-1-yl)methyl]phenyl}ethyl]amino}-8-propylpyrido[2,3-d]pyrimidin-7(8H)-one] were, in that order, 2.67 µM, 0.271 µM and 0.575 µM.
The like results for `COC(=O)C(C)(C)Cn1c(=O)ccc2cnc(N[C@@H](C)c3ccc4ccccc4c3)nc21` [cpd 37, methyl 2,2-dimethyl-3-[2-{[(1S)-1-(naphthalen-2-yl)ethyl]amino}-7-oxopyrido[2,3-d]pyrimidin-8(7H)-yl]propanoate] were, in that order, 4.85 µM, 0.805 µM and 1.48 µM.
Taken in the same sequence, the figures for `CCn1c(=O)ccc2cnc(N[C@@H](C)c3ccc(Cl)cc3)nc21` [cpd 14, 2-{[(1S)-1-(4-chlorophenyl)ethyl]amino}-8-ethylpyrido[2,3-d]pyrimidin-7(8H)-one] were 5.73 µM, 0.85 µM and 1.74 µM.
In the case of `CC[C@@H](C)n1c(=O)ccc2cnc(N[C@@H](C)c3ccc(CN4CCCC(F)(F)C4)cc3)nc21` [cpd 149, 8-[(2R)-butan-2-yl]-2-{[(1S)-1-{4-[(3,3-difluoropiperidin-1-yl)methyl]phenyl}ethyl]amino}pyrido[2,3-d]pyrimidin-7(8H)-one], the IC50 is 3.33 µM at IDH2^R172K, 0.048 µM at IDH1^R132C and 0.085 µM in test [1].
The like results for `C=CC(=O)N1CC=C(c2ccc([C@H](C)Nc3ncc4ccc(=O)n([C@@H](C)C(C)C)c4n3)nc2)CC1` [cpd 194, 2-{[(1S)-1-(1′-acryloyl-1′,2′,3′,6′-tetrahydro-3,4′-bipyridin-6-yl)ethyl]amino}-8-[(2S)-3-methylbutan-2-yl]pyrido [2,3-d]pyrimidin-7(8H)-one] were, in that order, 1.79 µM, 0.2 µM and 0.338 µM.
Take `C=CC(=O)N1CCN(c2ccc([C@H](C)Nc3ncc4ccc(=O)n([C@@H](C)C(C)C)c4n3)cc2F)CC1` [cpd 179, 2-({(1S)-1-[4-(4-acryloylpiperazin-1-yl)-3-fluorophenyl]ethyl}amino)-8-[(2S)-3-methylbutan-2-yl]pyrido[2,3-d]pyrimidin-7(8H)-one]: the values for the IC50 (against IDH2^R172K; at IDH1^R132C; in test [1]) were 2.35 µM, 0.063 µM and 0.123 µM, respectively.
Take `C[C@H](Nc1ncc2ccc(=O)n(CC(F)(F)F)c2n1)c1ccc(CN2CCC(F)(F)CC2)cc1` [cpd 106, 2-{[(1S)-1-{4-[(4,4-difluoropiperidin-1-yl)methyl]phenyl)ethyl]amino)-8-(2,2,2-trifluoroethyl)pyrido[2,3-d]pyrimidin-7(8H)-one]: the IC50 at IDH2^R172K was found to be 2.91 µM; at IDH1^R132C, 0.667 µM; in test [1] it was 1.23 µM.
Taken in the same sequence, the figures for `COC(=O)c1ccc([C@H](C)Nc2ncc3ccc(=O)n(Cc4ccc(F)cc4)c3n2)cc1` [cpd 6, methyl 4-[(1S)-1-{[8-(4-fluorobenzyl)-7-oxo-pyrido[2,3-d]pyrimidin-2-yl]amino}ethyl]benzoate] were 6.65 µM, 1.34 µM and 3.34 µM.
Taken in the same sequence, the figures for `C=CC(=O)N1CCN(Cc2ccc([C@H](C)Nc3ncc4ccc(=O)n([C@@H](C)CO)c4n3)cc2)CC1` [cpd 199, 2-{[(1S)-1-{4-[(4-acryloylpiperazin-1-yl)methyl]phenyl}ethyl]amino}-8-[(2S)-1-hydroxypropan-2-yl]pyrido[2,3-d]pyrimidin-7(8H)-one] were 0.717 µM, 1.53 µM and 1.4 µM.
Turning to `C[C@H](Nc1ncc2ccc(=O)n(CC(C)(C)C)c2n1)c1ccc(-c2ccsc2)cc1` [cpd 133, 8-(2,2-dimethylpropyl)-2-({(1S)-1-[4-(thiophen-3-yl)phenyl]ethyl}amino)pyrido[2,3-d]pyrimidin-7(8H)-one], the IC50 on IDH2^R172K turned out to be 5.05 µM; against IDH1^R132C, 0.141 µM; in test [1], 0.218 µM.
Taken in the same sequence, the figures for `C[C@H](Nc1ncc2ccc(=O)n(Cc3ccccc3F)c2n1)c1ccc(Cl)cc1` [cpd 22, 2-{[(1S)-1-(4-chlorophenyl)ethyl]amino}-8-(2-fluorobenzyl)pyrido[2,3-d]pyrimidin-7(8H)-one] were 2.99 µM, 0.195 µM and 0.451 µM.
